Assay results as given in patent publication US11401278B2, “Macrocyclic indole derivatives” (The Broad Institute, Inc., priority 2017, dated 2022).
Values joined by “and” are separate entries in the source; they are usually repeats but may differ in a detail not shown here. Equal entries are not always repeated. Structures can show the parent of a compound that is named as a salt. Where two headings read alike, the source gives them in different places.

Legend:
[1] = tested on: A2780; assay: Antiproliferation assay (Assay 7), A2780; format: cell-based; details: CellTiter-Glo, several values per example
Procedure: Assessment of the Anti-Proliferative Effect of Compounds in Different Cell Lines
The impact of compounds on the proliferation of different cell lines was assessed using the CellTiter-Glo® Luminescent Cell Viability reagent from Promega (G7573).
In parallel, cells were plated in a reference (day 0) plate for time zero determination.
Rim wells were excluded. The cells were incubated for 72 hours in a humidified incubator at 37° C. The day 0 plate was measured by adding 30 μL/well of CTG solution (CellTiter-Glo® Luminescent Cell Viability reagent, Promega G7573) to time zero wells in the reference plate followed by a 10 minutes incubation and luminescence reading at 0.1 ms. using the PHERAstar FS microplate reader (BMG Labtech).
After 72 hours incubation, the treated plates were measured in the same way as the day 0 plate mentioned above.

[2] = biological target: MCL1 protein (Homo sapiens (Human), UniProt Q07820); assay: PIxEL: protein-protein interaction in permeabilized cells by ELISA (Assay 5); format: cell-based; details: permeabilized RKO cells, Biotin-BIM peptide 0.2 μM, serum free; median
Procedure: PI×EL: Protein-Protein Interaction in Permeabilized Cells by ELISA
Most MCL1 protein molecules are localized at the mitochondria outer membrane and sequester pro-apoptotic proteins through binding of their BCL2 homology domain 3 (BH3 domain). MEB buffer (150 mM mannitol, 10 mM HEPES pH 7.5, 50 mM KCl, 20 μM EDTA, 20 μM EGTA, 5 mM potassium succinate, 0.1% protease-free BSA (SIGMA) with low dose digitonin (0.002%) permeabilizes plasma membrane while leaves live mitochondria, where MCL1 maintains its native localization and conformation. Unlike biophysical assays (e.g. TR-FRET) that use truncated recombinant MCL1 protein, this assay uses full length endogenous MCL1 protein at mitochondria outer membrane. It measures the interaction between MCL1 protein and biotinylated BIM BH3 peptide. Compounds can compete with BIM BH3 peptide to bind to MCL1 protein. This serum free assay measures the affinity between MCL1 protein and compound in permeabilized cells, therefore it is not affected by serum binding and cell permeability, and can measure the intrinsic compound affinity.
On day 1, RKO colon cancer cell line cells were plated at 0.8 million cells/ml, 100 μl/well in 96-well flat bottom TC plates (Corning). MCL1 antibody (Santa Cruz sc-12756) were diluted at 200 fold (final concentration 1 μg/ml) in carbonate buffer (Thermo Fisher Scientific, pH 9.6), and 50 μl of diluted antibody was added to each well of high bind ELISA plates (SARSTEDT). Each plate was tapped to make sure liquid covering entire bottom of wells and incubate at 37° C. overnight.
On the second day, MCL1 antibody was washed from ELISA plate. 250 μl Odyssey® Blocking Buffer (PBS) (Li-Cor) was added to each well, incubated at room temperature for at least 1 hour, then washed once with 250 μl 1×PBST. Plates with RKO cells were gently washed once with 100 μl/well PBS, once with 100 μl/well MEB buffer without digitonin, then 100 μl of MEB buffer with 0.002% digitonin was gently added to each well. Compounds were added with HP Tecan compound dispenser in 3-fold dilution series, highest dose 30 μM, 10-dose per compound in quadruplicates. Biotin-BIM peptide (synthesized by 21st Century) was added with HP Tecan compound dispenser at 0.2 μM immediately after the addition of compounds. Plates were rocked for 1 hour at room temperature. Then MEB buffer was aspirated and 50 μl of CHAPS buffer (50 mM Tris-Cl, pH 7.4, 150 mM NaCl, 1% CHAPS, 1 mM EDTA, 1 mM EGTA, cOmplete protease inhibitors (Roche), PhosSTOP (Roche)) was added to each well. Plates were rocked for 1 hour at 4° C., then 45 μl cell lysate from each well were transferred to ELISA plates coated with MCL1 antibody. Plates were incubated overnight in the cold room with rocking.
On the third day, ELISA plates were washed once with 250 μl 1×PBST. Streptavidin-poly-HRP (Thermo Fisher Scientific) was diluted to 20 ng/ml in Odyssey blocking buffer plus 0.05% Triton-100, and 100 μl was added to each well of the ELISA plate. Plates were incubated at room temperature for 1 hour with rocking, then washed with 100 μL 1×PBST for 3 times. Each SuperSignal ELISA Femto Maximum Sensitivity substrate was added to a 50-ml tube and mixed, then 100 μl of mixed substrate was added to each well. Plates were shaken for 1 minute then luminescence was measured by Envision plate reader […]. Signal of each well were normalized by no-compound control and no-cell control. IC50 was calculated using Graphic Pad PRISM software.

[3] = biological target: MCL-1 (Homo sapiens (Human), UniProt Q07820, K194A/K197A/R201A); assay: Protein-compound interaction assay (SPR assay, Assay 8); format: binding; details: immobilized MBP-MCL-1, 25° C., geometric mean
Source text: Assay 8 Protein-Compound Interaction Assay (SPR Assay)
The ability of the compounds described in this invention to bind to MCL-1 may be determined using surface plasmon resonance (SPR). This allows for the quantification of binding in terms of the equilibrium dissociation constant (KD [M]), as well as association and dissociation rate constants (kon [1/M 1/s] and koff [1/s], respectively). The measurements may be performed using Biacore® T200 or Biacore® S200 instruments (GE Healthcare).
For SPR measurements, recombinant MCL-1 (amino acids 173-321, N-terminal fused to Maltose Binding Protein (MBP) (SEQ ID 1) purchased from Beryllium (Bedford, Mass., USA)) was immobilized using standard amine coupling (Johnsson B et al, Anal Biochem. 1991 Nov. 1; 198(2):268-77). Briefly, carboxymethylated dextran biosensor chips (Series S Sensor Chip CMS, GE Healthcare) were activated with 1-ethyl-3-(3-dimethylaminopropyl)-carbodiimide hydrochloride (EDC) and N-hydroxysuccinimide (NHS) according to the supplier's instructions. MBP-MCL-1 was diluted in 1×PBS-P+ (GE Healthcare) and injected on the activated chip surface. Subsequently, a solution of 1 M ethanolamine-HCl (GE Healthcare) was injected to block unreacted groups, resulting in approximately 400-2500 response units (RU) of immobilized protein. A reference surface was generated by treatment with NHS-EDC and ethanolamine-HCl. Compounds were dissolved in 100% dimethylsulfoxide (DMSO) to a concentration of 10 mM and subsequently diluted in running buffer (1×PBS-P+ (GE Healthcare) [generated from PBS-P+ Buffer 10× (GE Healthcare): 0.2 M phosphate buffer with 27 mM KCl, 1.37 M NaCl and 0.5% Surfactant P20 (Tween 20).], 1% v/v DMSO). For SPR binding-measurements, serial dilutions of compound (eight dilution steps, typically ranging from 0.2 nM up to 1 μM) were injected over immobilized protein. […] Compounds were injected for 60 s followed by a dissociation time of up to 1000 s.
The double-referenced sensorgrams were fit to a simple reversible Langmuir 1:1 reaction mechanism as implemented in the Biacore® T200 and S200 evaluation software (T200 evaluation software version 2.0 and S200 evaluation software version 1.0, GE Healthcare).

[4] = Homo sapiens, A2780, 72 h, read-out: Antiproli A2780 [M] IC50

Sequence of MCL-1 (Q07820 whole entry K194A/K197A/R201A, looked up): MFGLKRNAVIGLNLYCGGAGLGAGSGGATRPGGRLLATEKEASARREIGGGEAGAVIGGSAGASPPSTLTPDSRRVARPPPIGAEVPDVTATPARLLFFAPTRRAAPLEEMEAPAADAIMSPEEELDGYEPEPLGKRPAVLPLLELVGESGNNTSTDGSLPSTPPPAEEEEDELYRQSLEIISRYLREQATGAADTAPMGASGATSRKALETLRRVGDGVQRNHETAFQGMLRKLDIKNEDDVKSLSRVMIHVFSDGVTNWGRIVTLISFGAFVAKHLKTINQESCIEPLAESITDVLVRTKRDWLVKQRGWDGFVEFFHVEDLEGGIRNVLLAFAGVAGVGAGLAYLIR
Sequence of MCL1 protein (Q07820 whole entry): as the sequence (Q07820 whole entry K194A/K197A/R201A, looked up) above, with A194K, A197K, A201R counted along it

An IC50 ([1]; 72 hours, listed as 06, read-out: Antiproli A2780 [M] IC50) of 1.19e-05 M was found for `Cc1c2c(nn1C)CN(C)S(=O)(=O)CCCn1c(C(=O)O)c(CCCOc3cccc4ccccc34)c3ccc(Cl)c-2c31` (single isomer, unassigned; enantiomer 2) [Example 6, 4-Chloro-2,3,14-trimethyl-7-{3-[(naphthalen-1-yl)oxy]propyl}-13,13-dioxo-10,11,12,13,14,15-hexahydro-2H-13λ^6-pyrazolo[3′,4′:4,5][1,2,8]thiadiazacycloundecino[6,7,8-hi]indole-8-carboxylic acid-N-ethylethanamine salt (Enantiomer 2)] in this work.
An IC50 ([1]; 72 hours, listed as 01, read-out: Antiproli A2780 [M] IC50) greater than 3.3e-05 M and an IC50 [1, 4] of 3.21e-05 M were found for `Cc1c2c(nn1C)CN(CCN1CCOCC1)S(=O)(=O)CCCn1c(C(=O)O)c(CCCOc3cccc4ccccc34)c3cccc-2c31` (racemic) [Example 1, (rac)-2,3-Dimethyl-14-[2-(morpholin-4-yl)ethyl]-7-{3-[(naphthalen-1-yl)oxy]propyl}-13,13-dioxo-10,11,12,13,14,15-hexahydro-2H-13λ^6-pyrazolo[3′,4′:4,5][1,2,8]thiadiazacycloundecino-[6,7,8-hi]indole-8-carboxylic acid] in this work.
An IC50 ([1]; 72 hours, listed as 04, read-out: Antiproli A2780 [M] IC50) of 1.66e-05 M and an IC50 [1, 4] of 1.22e-05 M were found for `Cc1c2c(nn1C)CN(C)S(=O)(=O)CCCn1c(C(=O)O)c(CCCOc3cccc4ccccc34)c3ccc(Cl)c-2c31` (racemic) [Example 4, (rac)-4-Chloro-2,3,14-trimethyl-7-{3-[(naphthalen-1-yl)oxy]propyl}-13,13-dioxo-10,11,12,13,14,15-hexahydro-2H-13λ^6-pyrazolo[3′,4′:4,5][1,2,8]thiadiazacycloundecino-[6,7,8-hi]indole-8-carboxylic acid] in this work.
For `Cc1c2c(nn1C)CN(C)S(=O)(=O)CCCn1c(C(=O)O)c(CCCOc3cccc4ccccc34)c3ccc(Cl)c-2c31` (single isomer, unassigned; enantiomer 1) [Example 5, 4-Chloro-2,3,14-trimethyl-7-{3-[(naphthalen-1-yl)oxy]propyl}-13,13-dioxo-10,11,12,13,14,15-hexahydro-2H-13λ^6-pyrazolo[3′,4′:4,5][1,2,8]thiadiazacycloundecino[6,7,8-hi]indole-8-carboxylic acid-N-ethylethanamine salt (Enantiomer 1)], the IC50 ([1]; 72 hours, listed as 05, read-out: Antiproli A2780 [M] IC50) was 9.33e-06 M and 1.13e-05 M, the IC50 [2] was 0.57 µM and the Kd [3] was 0.0024 µM. It also gave a koff ([3]; read-out: koff) of 0.0079 s⁻¹ and a kon ([3]; read-out: kon) of 3.2e+06 M⁻¹ s⁻¹.
